Tests used:
[1] = tested on: chickweed; assay: Test C postemergence herbicide test; type: in vivo, Stellaria media
Outline: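 Greenhouse pot plants at 2 to 18 cm height (1- to 4-leaf stage) received a postemergence application of formulated test chemical. Visual ratings against untreated controls were made after 13 to 15 days, on a 0 (no effect) to 100 (complete control) scale.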

[2] = tested on: crabgrass, large; assay: Test A pre-/postemergence herbicide test; type: in vivo, Digitaria sanguinalis; details: for Crabgrass, Large plant response rating: Preemergence, visual rating on 0 to 100 scale (0 no effect, 100 complete control)
Outline: (§1)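 Visual injury ratings, 0 = no effect, 100 = complete control, taken ~10 days after treatment against untreated greenhouse controls. Preemergence: directed soil spray onto seeded loam/sand pots. Postemergence: spray onto plants at one- to two-leaf stage, 2–10 cm tall.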

[3] = tested on: velvetleaf; assay: Test A pre-/postemergence herbicide test; type: in vivo, Abutilon theophrasti; details: for Velvetleaf plant response rating: Preemergence, visual rating on 0 to 100 scale (0 no effect, 100 complete control)
Outline: as §1

[4] = tested on: kochia; assay: Test C pre-/postemergence herbicide test; type: in vivo, Kochia scoparia; details: Postemergence
Excerpt: Seeds of plant species selected from blackgrass (Alopecurus myosuroides), ryegrass, Italian (Italian ryegrass, Lolium multiflorum), wheat (winter wheat, Triticum aestivum), galium (catchweed bedstraw, Galium aparine), corn (Zea mays), crabgrass, large (large crabgrass, Digitaria sanguinalis), foxtail, giant (giant foxtail, Setaria faberii), johnsongrass (Sorghum halepense), lambsquarters (Chenopodium album), morningglory (Ipomoea coccinea), nutsedge, yellow (yellow nutsedge, Cyperus esculentus), pigweed (Amaranthus retroflexus), ragweed (common ragweed, Ambrosia elatior), soybean (Glycine max), barnyardgrass (Echinochloa crus-galli), oilseed rape (Brassica napus), waterhemp (common waterhemp, Amaranthus rudis), kochia (Kochia scoparia), oat, wild (wild oat, Avena fatua), surinam grass (Brachiaria decumbens), foxtail, green (green foxtail, Setaria viridis), goosegrass (Eleusine indica), bromegrass, downy (downy bromegrass, Bromus tectorum), nightshade (eastern black nightshade, Solanum ptycanthum), cocklebur (common cocklebur, Xanthium strumarium), cupgrass, woolly (woolly cupgrass, Eriochloa villosa), bermudagrass (Cynodon dactylon), sunflower, (common oilseed sunflower, Helianthus annuus), Russian thistle (Salsola kali) and velvetleaf (Abutilon theophrasti) were planted into a blend of loam soil and sand and treated preemergence with test chemicals formulated in a non-phytotoxic solvent mixture which included a surfactant. At the same time, plants selected from these crop and weed species and also barley (winter barley, Hordeum vulgare), […]), chickweed (common chickweed, Stellaria media), deadnettle (henbit deadnettle, Lamium amplexicaule), and canarygrass (littleseed canarygrass, Phalaris minor) were planted in pots containing Redi-Earth® planting medium (Scotts Company, 14111 Scottslawn Road, Marysville, Ohio 43041) comprising spaghnum peat moss, vermiculite, wetting agent and starter nutrients and treated with postemergence applications of test chemicals formulated in the same manner. Plants ranged in height from 2 to 18 cm (1- to 4-leaf stage) for postemergence treatments. Treated plants and controls were maintained in a greenhouse for 13 to 15 days, after which time all species were compared to controls and visually evaluated. Plant response ratings, summarized in Table C, are based on a scale of 0 to 100 where 0 is no effect and 100 is complete control. A dash (-) response means no test result.

[5] = tested on: ducksalad; assay: Test C flooded paddy test; type: in vivo, Heteranthera limosa; details: Flood
Outline: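 Plants at the 2-leaf stage in pots flooded to 3 cm were treated by applying compound directly to the paddy water, with depth held throughout. After 13 to 15 days in a greenhouse, response was rated visually against controls on a 0 (no effect) to 100 (complete control) scale.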

[6] = tested on: galium; assay: Test A postemergence herbicide test; type: in vivo, Galium aparine
Outline: (§2)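 Ratings compare treated with untreated plants roughly 10 days after a postemergence application made at the one- to two-leaf stage. Scoring uses 0–100, where 0 means no effect and 100 complete control.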

[7] = tested on: blackgrass; assay: Test A postemergence herbicide test; type: in vivo, Alopecurus myosuroides
Outline: as §2

[8] = 31 g ai/ha, scale 0 (no effect) to 100 (complete control)
[9] = 62 g ai/ha, scale 0 to 100 (0 no effect, 100 complete control)
[10] = 125 g ai/ha, scale 0 to 100 (0 no effect, 100 complete control)
[11] = 250 g ai/ha, scale 0 to 100 (0 no effect, 100 complete control)
[12] = Postemergence, 125 g ai/ha, 0 to 100 scale, 0 no effect, 100 complete control
[13] = Postemergence, 500 g ai/ha, 0 to 100 scale (0 no effect, 100 complete control)
[14] = preemergence, 500 g ai/ha, 0 to 100 scale
[15] = 31 g ai/ha, scale 0 to 100 (0 no effect, 100 complete control)
[16] = 62 g ai/ha, scale 0 (no effect) to 100 (complete control)
[17] = 125 g ai/ha, scale of 0 to 100 where 0 is no effect and 100 is complete control, 13 to 15 days
[18] = 250 g ai/ha, scale of 0 to 100 where 0 is no effect and 100 is complete control, 13 to 15 days
[19] = 125 g ai/ha, 0 to 100 scale, 0 is no effect, 100 is complete control
[20] = 62 g ai/ha, scale of 0 to 100 where 0 is no effect and 100 is complete control, 13 to 15 days
[21] = 500 g ai/ha, 0 to 100 scale (0 no effect, 100 complete control)
[22] = 125 g ai/ha, visual rating on 0 to 100 scale (0 no effect, 100 complete control), approx. 10 days

SMILES | Plant response rating, Chickweed [1, 10] | Plant response rating, Chickweed [1, 11] | Plant response rating, Kochia [4, 10] | Plant response rating, Kochia [4, 11] | Plant response rating, Chickweed [1, 15] | Plant response rating, Chickweed [1, 16] | Plant response rating, Ducksalad [5, 17] | Plant response rating, Ducksalad [5, 18] | Plant response rating, Galium [6, 19] | Plant response rating, Blackgrass [7, 19] | Plant response rating, Kochia [4, 15] | Plant response rating, Kochia [4, 16] | Plant response rating, Galium [6, 21] | Plant response rating, Blackgrass [7, 21] | other results
O=C1NCC(c2ccc(F)c(C(F)(F)F)c2)C1C(=O)Nc1ccccc1F (racemic) [Compound 76] | 65 | 80 | 50 | 65 | – | – | – | – | – | – | – | – | – | – | Plant response rating, Chickweed [1, 8]: 40; Plant response rating, Chickweed [1, 9]: 40; Plant response rating, Crabgrass, Large [2, 12]: 90; Plant response rating, Crabgrass, Large [2, 13]: 90; Crabgrass, Large plant response rating ([2]; 125 g ai/ha): 90; Plant response rating, Crabgrass, Large [2, 14]: 90; Plant response rating, Velvetleaf [3, 12]: 20; Plant response rating, Velvetleaf [3, 13]: 60; Velvetleaf plant response rating ([3]; 125 g ai/ha): 0; Plant response rating, Velvetleaf [3, 14]: 0; Plant response rating, Kochia [4, 8]: 40; Plant response rating, Kochia [4, 9]: 50
O=C1NCC(c2ccccc2)C1C(=O)Nc1ccccc1F (racemic) [Compound 81] | 0 | 0 | 0 | 0 | – | – | – | – | – | – | – | – | – | – | Plant response rating, Chickweed [1, 8]: 0; Plant response rating, Chickweed [1, 9]: 0; Plant response rating, Crabgrass, Large [2, 12]: 50; Plant response rating, Crabgrass, Large [2, 13]: 80; Crabgrass, Large plant response rating ([2]; 125 g ai/ha): 80; Plant response rating, Crabgrass, Large [2, 14]: 90; Plant response rating, Velvetleaf [3, 12]: 0; Plant response rating, Velvetleaf [3, 13]: 0; Velvetleaf plant response rating ([3]; 125 g ai/ha): 0; Plant response rating, Velvetleaf [3, 14]: 0; Plant response rating, Kochia [4, 8]: 0; Plant response rating, Kochia [4, 9]: 0
O=C1NCC(c2cccc(C(F)(F)F)c2)C1C(=O)Nc1ccc(F)cc1F (racemic) [Compound 207] | 60 | 90 | 0 | 30 | 30 | 50 | 60 | 75 | 0 | 70 | 0 | 0 | – | – | Plant response rating, Ducksalad ([5]; 500 g ai/ha, scale 0 to 100): 100; Plant response rating, Ducksalad ([5]; 1000 g ai/ha, scale 0 to 100): 80; Galium plant response rating (0 to 100 scale, 0 is no effect, 100 is complete control) ([6]; 500 g ai/ha): 50; Blackgrass plant response rating (0 to 100 scale, 0 is no effect, 100 is complete control) ([7]; 500 g ai/ha): 70
O=C1NCC(c2cccc(Cl)c2)C1C(=O)Nc1cccc(F)c1F (racemic) [Compound 275] | 85 | 85 | 85 | 85 | 50 | 60 | 100 | 100 | 60 | 50 | 70 | 85 | 70 | 60 | Plant response rating, Ducksalad [5, 20]: 85; Plant response rating, Ducksalad ([5]; 500 g ai/ha, scale 0 to 100): 100
O=C1NCC(c2cc(F)cc(F)c2)C1C(=O)Nc1ccc(F)cc1F (racemic) [Compound 278] | 0 | 0 | 0 | 5 | 0 | 0 | – | – | 40 | 30 | 0 | 0 | 50 | 60 | –
O=C1NCC(c2cc(F)cc(F)c2)C1C(=O)Nc1cccc(F)c1F (racemic) [Compound 279] | 30 | 5 | 85 | 35 | 5 | 75 | – | – | 40 | 60 | 0 | 30 | 50 | 70 | –
O=C1NCC(c2cccc(OC(F)F)c2)C1C(=O)Nc1ccccc1F (stereo not shown) [Compound 223] | 50 | 80 | 30 | 60 | 40 | 45 | 65 | 95 | 50 | 60 | 0 | 5 | – | – | Plant response rating, Ducksalad ([5]; 31 g ai/ha, scale of 0 to 100 where 0 is no effect and 100 is complete control, 13 to 15 days): 30; Plant response rating, Ducksalad [5, 20]: 50; Galium plant response rating (0 to 100 scale, 0 is no effect, 100 is complete control) ([6]; 500 g ai/ha): 60; Blackgrass plant response rating (0 to 100 scale, 0 is no effect, 100 is complete control) ([7]; 500 g ai/ha): 70
CN1CC(c2ccc(F)c(F)c2)C(C(=O)Nc2ccccc2F)C1=O (stereo not shown) [Compound 302] | 5 | 70 | 0 | 60 | 0 | 0 | – | – | – | – | 0 | 0 | 60 | 60 | Plant response rating, Galium [6, 22]: 60; Plant response rating, Blackgrass [7, 22]: 40
O=C1NCC(c2cccc(Br)c2)C1C(=O)Nc1cccc(F)c1F (stereo not shown) [Compound 309] | 65 | 70 | – | 75 | 30 | 50 | – | – | – | – | 5 | 5 | 70 | 70 | Plant response rating, Galium [6, 22]: 60; Plant response rating, Blackgrass [7, 22]: 60
